Measured values taken from patent publication US20260250301A1, “KRAS G12D INHIBITORS AND USES THEREOF” (SUZHOU ZANRONG PHARMA LIMITED, priority 2023, published 2026).

Tests used:
PANC-1 pERK = assay: Phospho-ERK 1/2 assay; type: cell-based; conditions: PANC-1 cells, compound incubation 3 hours, pERK normalised with GAPDH antibody staining
Protocol: Allow PNAC-1 cell growth in a T75 flask in DMEM and 10% 1 fetal calf serum (FCS; Gibco®), using standard tissue culture procedures until ~80% confluency is achieved. Day 1, seed 6000 cells/well in 384 well plate and incubate at 37° C., 5% CO2. Add diluted compound by Echo 550, final DMSO is 0.5%, incubate cells at 37° C., 5% CO2 for 3 hours. Then, remove medium and fix cells with 3.7% formaldehyde in PBS (PFA) by Apricot. Wash with PBS once. Permeabilize cells with cold 100% methanol and repeat wash once with PBS once. Add Li-Cor blocking buffer to each well and incubate 1.5 hours at RT. Remove blocking buffer and add primary antibody mixture (rabbit anti pERK, mouse anti GAPDH). Incubate at 4° C. overnight. Day 2, wash with PBST (Tween-20 in PBS) with total 3 times and then add secondary antibody mixture (goat anti rabbit 800CW (1:800 dilution in the combined solution) and goat anti mouse 680RD (1:800 dilution in the combined solution)), incubate for 60 minutes at RT away from light. Repeat washing with PBST 3 times. After final wash, centrifuge plate up-side-down at 1000 rpm to remove wash solution completely from wells. Before plate scanning, clean the bottom plate surface and the Odyssey© Imager scanning bed (if applicable) with moist, lint-free tissue to avoid any obstructions during scanning. Scan plate with detection in both 700 and 800 nm channels.

[1] = In vivo oral bioavailability assay (mouse PK); conditions: Balb/c mice female, IV bolus 1 mg/kg
Protocol: In Vivo Oral Bioavailability Assay (Mouse PK):
Single dose following IV bolus (1 mg/kg, 0.2 mg/mL in 1% DMSO, 99% SBE-β-CD (10% w/v) in water) and oral gavage (10 mg/kg~60 mg/kg) administration of test compound in Balb/c Mice female. The blood samples were collected at 2 min, 5 min, 10 min, 30 min, 1 hr, 2 hr, 4 hr, 8 hr and 24 hr (additional 32 hr and 48 hr for MRTX1133) after IV bolus, at 15 min, 30 min, 1 hr, 1.5 hr, 2 hr, 3 hr, 4 hr, 8 hr and 24 hr (additional 32 hr and 48 hr for MRTX1133) after PO administration. The plasma concentrations of compounds were determined with UPLC-MS/MS.

[2] = target: T1, P-glycoprotein (Pgp, MDR1) (Homo sapiens, UniProt P08183); assay: MDCK-MDR1 Pgp assessment; type: in vitro ADME; conditions: dog, MDCK-MDR1 cells, read-out: Pgp Efflux Ratio (Pexact)
T1 construct: expressed in transfected cells; host or cells: MDCK-MDR1 cells
T1 sequence (P08183 whole entry): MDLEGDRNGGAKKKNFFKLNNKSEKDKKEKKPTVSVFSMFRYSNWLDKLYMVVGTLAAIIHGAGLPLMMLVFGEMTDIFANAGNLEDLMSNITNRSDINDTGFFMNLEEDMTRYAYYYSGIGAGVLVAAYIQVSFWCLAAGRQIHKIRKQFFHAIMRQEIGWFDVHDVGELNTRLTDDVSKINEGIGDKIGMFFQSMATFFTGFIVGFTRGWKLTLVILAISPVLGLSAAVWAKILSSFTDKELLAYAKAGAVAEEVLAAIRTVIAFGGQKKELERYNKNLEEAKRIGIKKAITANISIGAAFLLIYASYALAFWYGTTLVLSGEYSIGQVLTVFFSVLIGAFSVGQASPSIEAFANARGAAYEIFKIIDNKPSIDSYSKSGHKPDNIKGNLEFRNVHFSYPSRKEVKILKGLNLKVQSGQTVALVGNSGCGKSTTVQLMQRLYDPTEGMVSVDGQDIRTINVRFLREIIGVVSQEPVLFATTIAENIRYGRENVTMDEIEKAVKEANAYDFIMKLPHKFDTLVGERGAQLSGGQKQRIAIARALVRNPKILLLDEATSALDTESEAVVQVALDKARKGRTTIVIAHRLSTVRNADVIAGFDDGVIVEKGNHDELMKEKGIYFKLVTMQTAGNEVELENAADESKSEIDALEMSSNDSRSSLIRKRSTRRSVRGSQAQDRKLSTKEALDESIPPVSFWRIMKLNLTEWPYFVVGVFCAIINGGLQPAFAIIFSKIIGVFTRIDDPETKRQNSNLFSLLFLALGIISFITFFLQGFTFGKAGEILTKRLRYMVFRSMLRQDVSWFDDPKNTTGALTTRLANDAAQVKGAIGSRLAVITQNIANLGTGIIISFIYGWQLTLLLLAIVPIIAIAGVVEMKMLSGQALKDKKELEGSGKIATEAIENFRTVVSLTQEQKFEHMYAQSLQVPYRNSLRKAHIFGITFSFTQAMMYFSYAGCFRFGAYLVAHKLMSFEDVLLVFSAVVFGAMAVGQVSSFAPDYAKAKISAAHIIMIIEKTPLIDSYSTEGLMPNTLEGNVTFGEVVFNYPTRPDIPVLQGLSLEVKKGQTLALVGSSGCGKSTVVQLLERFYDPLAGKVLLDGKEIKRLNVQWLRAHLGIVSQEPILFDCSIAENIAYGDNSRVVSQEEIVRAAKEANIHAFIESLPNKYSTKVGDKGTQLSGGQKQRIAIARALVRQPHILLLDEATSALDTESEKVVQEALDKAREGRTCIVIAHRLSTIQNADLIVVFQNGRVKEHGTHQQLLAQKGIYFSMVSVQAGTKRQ
Protocol: Efflux transport mediated by P-glycoprotein (Pgp) was assessed by MDCK-MDR1 cells. The final concentrations of test compounds and control compound were at 1 μM. The multi-well insert plate was incubated at 37 ^9C for 2 hours. In order to reliably measure passive permeability coefficients, Pexact was reported, which automatically corrects for loss of compound.

Compound | IC50 (PANC-1 pERK; Homo sapiens, PANC-1, 3 h) | further results
C#Cc1c(F)ccc2cccc(-c3nc4c5c(nc(=O)n(C[C@@]67CCCN6CC(=C)C7)c5c3F)N3C[C@H]5CC[C@H](N5)[C@H]3[C@H](C)O4)c12 (single isomer, unassigned) [Example 200a] | 12 nM | Fa*Fg (%) ([1]; oral dose 10 mpk): 24%; bioavailability ([1]; mouse, plasma, oral dose 10 mpk): 15.8%
C#Cc1c(F)ccc2cccc(-c3nc4c5c(nc(=O)n(CC(C)(CO)N(C)C)c5c3F)N3C[C@H]5CC[C@H](N5)[C@H]3[C@H](C)O4)c12 (single isomer, unassigned) [Example 365a] |  | IC50 (PANC-1 pERK): 6 nM; efflux ratio at 2 h, 1 μM [2]: 8.4
CCc1c(F)ccc2cc(O)cc(-c3nc4c5c(nc(=O)n(CC(C)(CO)N(C)C)c5c3F)N3C[C@H]5CC[C@H](N5)[C@H]3[C@H](C)O4)c12 (single isomer, unassigned) [Example 373a] |  | IC50 (PANC-1 pERK): 6.4 nM; efflux ratio at 2 h, 1 μM [2]: 12.5
CCc1c(F)ccc2cc(O)cc(-c3nc4c5c(nc(=O)n(C[C@@]67CCCN6C[C@H](F)C7)c5c3F)N3C[C@@]5(C)CC[C@H](N5)[C@H]3[C@H](C)O4)c12 [Example 361, (5S,5aS,6S,9R)-2-(8-ethyl-7-fluoro-3-hydroxynaphthalen-1-yl)-1-fluoro-13-(((2R,7aS)-2-fluorotetrahydro-1H-pyrrolizin-7a(5H)-yl)methyl)-5,9-dimethyl-5a,6,7,8,9,10-hexahydro-5H-4-oxa-3,10a,11,13,14-pentaaza-6,9-methanonaphtho[1,8-ab]heptalen-12(13H)-one] | 43 nM | 
C=C1CN2CCC[C@@]2(Cn2c(=O)nc3c4c(nc(-c5cc(O)cc6ccc(F)c(CC)c56)c(F)c42)O[C@@H](C)[C@@H]2[C@@H]4CC[C@](C)(CN32)N4)C1 [Example 362, (5S,5aS,6S,9R)-2-(8-ethyl-7-fluoro-3-hydroxynaphthalen-1-yl)-1-fluoro-5,9-dimethyl-13-(((S)-2-methylenetetrahydro-1H-pyrrolizin-7a(5H)-yl)methyl)-5a,6,7,8,9,10-hexahydro-5H-4-oxa-3,10a,11,13,14-pentaaza-6,9-methanonaphtho[1,8-ab]heptalen-12(13H)-one] | 221 nM | 
C=C1CN2CCC[C@@]2(Cn2c(=O)nc3c4c(nc(-c5cc(O)cc6ccc(F)c(Cl)c56)c(F)c42)O[C@@H](C)[C@@H]2[C@@H]4CC[C@H](CN32)N4)C1 [Example 363, (5S,5aS,6S,9R)-2-(8-chloro-7-fluoro-3-hydroxynaphthalen-1-yl)-1-fluoro-5-methyl-13-(((S)-2-methylenetetrahydro-1H-pyrrolizin-7a(5H)-yl)methyl)-5a,6,7,8,9,10-hexahydro-5H-4-oxa-3,10a,11,13,14-pentaaza-6,9-methanonaphtho[1,8-ab]heptalen-12(13H)-one] | 88 nM | 
C#Cc1c(F)ccc2cccc(-c3nc4c5c(nc(=O)n(C[C@H]6CCN6C)c5c3F)N3C[C@H]5CC[C@H](N5)[C@H]3[C@H](C)O4)c12 [Example 366, (8S,8aS,9S,12R)-5-(8-ethynyl-7-fluoronaphthalen-1-yl)-4-fluoro-8-methyl-3-(((R)-1-methylazetidin-2-yl)methyl)-8a,9,10,11,12,13-hexahydro-8H-7-oxa-1,3,6,13a,14-pentaaza-9,12-methanonaphtho[1,8-ab]heptalen-2(3H)-one] | 272 nM | 
C#Cc1c(F)ccc2cccc(-c3nc4c5c(nc(=O)n(C[C@@]6(C)CCCN6C)c5c3F)N3C[C@H]5CC[C@H](N5)[C@H]3[C@H](C)O4)c12 [Example 367, (8S,8aS,9S,12R)-3-(((R)-1,2-dimethylpyrrolidin-2-yl)methyl)-5-(8-ethynyl-7-fluoronaphthalen-1-yl)-4-fluoro-8-methyl-8a,9,10,11,12,13-hexahydro-8H-7-oxa-1,3,6,13a,14-pentaaza-9,12-methanonaphtho[1,8-ab]heptalen-2(3H)-one] | 234 nM | 
CCc1c(F)ccc2cc(O)cc(-c3nc4c5c(nc(=O)n(C[C@H]6CCN6C)c5c3F)N3C[C@H]5CC[C@H](N5)[C@H]3[C@H](C)O4)c12 [Example 369, (8S,8aS,9S,12R)-5-(8-ethyl-7-fluoro-3-hydroxynaphthalen-1-yl)-4-fluoro-8-methyl-3-(((R)-1-methylazetidin-2-yl)methyl)-8a,9,10,11,12,13-hexahydro-8H-7-oxa-1,3,6,13a,14-pentaaza-9,12-methanonaphtho[1,8-ab]heptalen-2(3H)-one] | 400 nM | 
C#Cc1c(F)ccc2cccc(-c3nc4c5c(nc(=O)n(C(C)[C@H]6CCCN6C)c5c3F)N3C[C@H]5CC[C@H](N5)[C@H]3[C@H](C)O4)c12 (stereo partly drawn) [Example 370, (8S,8aS,9S,12R)-5-(8-ethynyl-7-fluoronaphthalen-1-yl)-4-fluoro-8-methyl-3-(1-((R)-1-methylpyrrolidin-2-yl)ethyl)-8a,9,10,11,12,13-hexahydro-8H-7-oxa-1,3,6,13a,14-pentaaza-9,12-methanonaphtho[1,8-ab]heptalen-2(3H)-one] | 271 nM | 
C#Cc1c(F)ccc2cc(O)cc(-c3ncc4c(N5CC6CCC(C5)N6)nc(OC[C@@]56CCCN5C[C@H](F)C6)nc4c3F)c12 [MRTX1133, reference compound] |  | Fa*Fg (%) ([1]; oral dose 30 mpk): 0.95%
